This note sets out measurements from patent US8637525B2, “Compounds for the reduction of beta-amyloid production” (Bristol-Myers Squibb Company, priority 2009, dated 2014).

Usually IC50 stands for the concentration that gives 50% inhibition.

Structures can show the parent of a compound that is named as a salt.

The first experiment relates to Aβ1-42 production. The experiment can be described thus: Cellular assay for inhibition of Aβ1-42 production (H4 APP751 SWE clone 8.20). The format is cell-based. The settings on record: 19 h, H4 APP751 SWE clone 8.20 cells, 19 h incubation; class symbols; read-out: Activity Rating (Aβ42 cellular IC50). The gist of the method:
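Aβ42 read by time-resolved FRET using neoepitope antibody 565 (0.8 ng/well) paired with N-terminal 26D6 (75 ng/well), incubated overnight at 4 °C, then IC50 curve fitting. Cells: H4 APP751 Swedish clone 8.20, exposed to compound for 19 h at 37 °C.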
Turning to `CCNc1nc(Nc2ccc(-n3cnc(C)n3)c(F)c2)nc2c1CN(CC(F)F)CC2c1ccccc1` (stereo not shown) [Example 195B, 6-(2,2-difluoroethyl)-N4-ethyl-N2-(3-fluoro-4-(3-methyl-1H-1,2,4-triazol-1-yl)phenyl)-8-phenyl-5,6,7,8-tetrahydropyrido[4,3-d]pyrimidine-2,4-diamine], the half-inhibitory concentration (IC50) is 100 to 1000 nM.

Regarding `CCNc1nc(Nc2ccc(-n3cnc(C)n3)c(F)c2)nc2c1CN(C(=O)C1CC1)CC2c1ccccc1` (stereo not shown) [Example 143, cyclopropyl(4-(ethylamino)-2-(3-fluoro-4-(3-methyl-1H-1,2,4-triazol-1-yl)phenylamino)-8-phenyl-7,8-dihydropyrido[4,3-d]pyrimidin-6(5H)-yl)methanone], the 50% inhibitory concentration (IC50) was in the range of 10 to 100 nM.

With `COc1cc(Nc2nc3c(c(N4CCC(F)(F)C4)n2)CCC3c2cc(F)c(F)c(F)c2)ccc1-n1cnc(Cl)c1` (racemic) [Example 107, N-(4-(4-Chloro-1H-imidazol-1-yl)-3-methoxyphenyl)-4-(3,3-difluoropyrrolidin-1-yl)-7-(3,4,5-trifluorophenyl)-6,7-dihydro-5H-cyclopenta[d]pyrimidin-2-amine], the IC50 is 10 to 100 nM. The same measure, in the same setting: the result for `CNc1nc(Nc2ccc(-n3cnc(C)n3)c(OC)c2)nc2c1CC[C@@H]2c1ccccc1OC` [Example 266B, (R)—N2-(3-methoxy-4-(3-methyl-1H-1,2,4-triazol-1-yl)phenyl)-7-(2-methoxyphenyl)-N4-methyl-6,7-dihydro-5H-cyclopenta[d]pyrimidine-2,4-diamine] reads 10 to 100 nM; that for `CNc1nc(Nc2ccc(-n3ncnc3C)c(F)c2)nc2c1CN(C)CC2c1ccccc1` (stereo not shown) [Example 150, N2-(3-fluoro-4-(5-methyl-1H-1,2,4-triazol-1-yl)phenyl)-N4,6-dimethyl-8-phenyl-5,6,7,8-tetrahydropyrido[4,3-d]pyrimidine-2,4-diamine], 10 to 100 nM; that for `CCNc1nc(Nc2ccc(-n3cnc(Cl)c3)c(OC)c2)nc2c1CCN(S(C)(=O)=O)C2c1ccc(F)cc1` (stereo not shown) [Example 168A, N2-(4-(4-chloro-1H-imidazol-1-yl)-3-methoxyphenyl)-N4-ethyl-8-(4-fluorophenyl)-7-(methylsulfonyl)-5,6,7,8-tetrahydropyrido[3,4-d]pyrimidine-2,4-diamine], 1.5 to 9.9 nM. The same measure, in the same setting: the result for `CNc1nc(Nc2ccc(-c3ccnc(Cl)c3)c(OC)c2)nc2c1CCC2c1ccccc1` (stereo not shown) [Example 278, N2-(4-(2-chloropyridin-4-yl)-3-methoxyphenyl)-N4-methyl-7-phenyl-6,7-dihydro-5H-cyclopenta[d]pyrimidine-2,4-diamine] reads 10 to 100 nM. On the same count and under the same terms, to `CNc1nc(Nc2ccc(-n3cnc(C)n3)c(OC)c2)nc2c1CC[C@H]2c1cccc(OC)c1` (single isomer, unassigned) [Example 272A] belongs 10 to 100 nM; to `Cc1ncnn1-c1ccc(Nc2nc3c(c(N(C)C)n2)COCC3c2ccc(Cl)cc2)cc1F` (single isomer, unassigned) [Example 67A, 8-(4-chlorophenyl)-N^2-(3-fluoro-4-(5-methyl-1H-1,2,4-triazol-1-yl)phenyl)-N^4,N^4-dimethyl-7,8-dihydro-5H-pyrano[4,3-d]pyrimidine-2,4-diamine], 10 to 100 nM. Consider `CCNc1nc(Nc2ccc(-n3ncnc3C)c(F)c2)nc2c1COCC2c1ccc(C(F)(F)F)cc1` (racemic) [Example 119, N4-ethyl-N2-(3-fluoro-4-(5-methyl-1H-1,2,4-triazol-1-yl)phenyl)-8-(4-(trifluoromethyl)phenyl)-7,8-dihydro-5H-pyrano[4,3-d]pyrimidine-2,4-diamine, TFA], for which the 50% inhibitory concentration (IC50) is 10 to 100 nM. On the same count and under the same terms, to `COc1cc(Nc2nc3c(c(N4CCC(C(F)(F)F)C4)n2)CCC3c2ccc(F)cc2)ccc1-n1cnc(Cl)c1` (racemic) [Example 41, N-(4-(4-chloro-1H-imidazol-1-yl)-3-methoxyphenyl)-7-(4-fluorophenyl)-4-(3-(trifluoromethyl)pyrrolidin-1-yl)-6,7-dihydro-5H-cyclopenta[d]pyrimidin-2-amine] belongs 10 to 100 nM. Same read-out and setting: the result for `CNc1nc(Nc2ccc(-n3cnc(Cl)c3)c(OC)c2)nc2c1COCC2c1ccccc1` (single isomer, unassigned) [Example 51A, N^2-(4-(4-chloro-1H-imidazol-1-yl)-3-methoxyphenyl)-N^4-methyl-8-phenyl-7,8-dihydro-5H-pyrano[4,3-d]pyrimidine-2,4-diamine] reads 1.5 to 9.9 nM; that for `CNc1nc(Nc2ccc(-n3cnc(Cl)c3)c(OC)c2)nc2c1COCC2c1ccc(F)cc1` (racemic) [Example 60, N2-(4-(4-chloro-1H-imidazol-1-yl)-3-methoxyphenyl)-8-(4-fluorophenyl)-N4-methyl-7,8-dihydro-5H-pyrano[4,3-d]pyrimidine-2,4-diamine], 1.5 to 9.9 nM; that for `CCNc1nc(Nc2ccc(-n3ncnc3C)c(F)c2)nc2c1COCC2c1ccc(F)cc1` (stereo not shown) [Example 59A, N4-ethyl-N2-(3-fluoro-4-(5-methyl-1H-1,2,4-triazol-1-yl)phenyl)-8-(4-fluorophenyl)-7,8-dihydro-5H-pyrano[4,3-d]pyrimidine-2,4-diamine], 1.5 to 9.9 nM. Turning to `CCNc1nc(Nc2ccc(-n3ncnc3C)c(F)c2)nc2c1CN(CC(F)(F)F)CC2c1ccccc1` (stereo not shown) [Example 146, N4-ethyl-N2-(3-fluoro-4-(5-methyl-1H-1,2,4-triazol-1-yl)phenyl)-8-phenyl-6-(2,2,2-trifluoroethyl)-5,6,7,8-tetrahydropyrido[4,3-d]pyrimidine-2,4-diamine], the IC50 was in the range of 10 to 100 nM. Still for that read-out and setting: to `COc1cc(Nc2nc3c(c(N4C[C@@H](C)O[C@@H](C)C4)n2)CCC3c2ccc(F)cc2)ccc1-n1cnc(Cl)c1` (stereo partly shown) [Example 21] belongs 10 to 100 nM; to `CNc1nc(Nc2ccc(-n3cnc(C)n3)c(F)c2)nc2c1CCOC2c1ccccc1` (stereo not shown) [Example 86, N2-(3-fluoro-4-(3-methyl-1H-1,2,4-triazol-1-yl)phenyl)-N4-methyl-8-phenyl-6,8-dihydro-5H-pyrano[3,4-d]pyrimidine-2,4-diamine], 10 to 100 nM. Same read-out and setting: the result for `COc1cc(Nc2nc3c(c(N4CCN(C)CC4)n2)CCC3c2ccc(F)cc2)ccc1-n1cnc(Cl)c1` (stereo not shown) [Example 30, N-(4-(4-chloro-1H-imidazol-1-yl)-3-methoxyphenyl)-7-(4-fluorophenyl)-4-(4-methylpiperazin-1-yl)-6,7-dihydro-5H-cyclopenta[d]pyrimidin-2-amine] reads 10 to 100 nM; that for `CCNc1nc(Nc2ccc(-n3cnc(Cl)c3)c(OC)c2)nc2c1CN(C)CC2c1ccc(F)cc1` (stereo not shown) [Example 164A, N2-(4-(4-chloro-1H-imidazol-1-yl)-3-methoxyphenyl)-N4-ethyl-8-(4-fluorophenyl)-6-methyl-5,6,7,8-tetrahydropyrido[4,3-d]pyrimidine-2,4-diamine], 10 to 100 nM.

Still in this experiment, the particulars now being: 19 h, H4 APP751 SWE clone 8.20 cells, 19 h incubation; read-out: Activity Rating (Aβ42 cellular IC50), numeric value.
Take `COc1cc(Nc2nc3c(c(N4CC[C@@H](F)C4)n2)CCC3c2ccc(F)cc2)ccc1-n1cnc(Cl)c1` (single isomer, unassigned) [Example 38A]: the half-inhibitory concentration (IC50) amounted to 12 nM.

For `COc1cc(Nc2nc3c(c(N4CC(F)(F)C4)n2)CCC3c2ccc(Cl)cc2)ccc1-n1cnc(Cl)c1` (stereo not shown) [Example 93, N-(4-(4-Chloro-1H-imidazol-1-yl)-3-methoxyphenyl)-7-(4-chlorophenyl)-4-(3,3-difluoroazetidin-1-yl)-6,7-dihydro-5H-cyclopenta[d]pyrimidin-2-amine], the 50% inhibitory concentration (IC50) is 20 nM. On to `COc1cc(Nc2nc(N[C@H](C)C3CC3)c3c(n2)C(c2ccc(C(F)(F)F)cc2)COC3)ccc1-n1cnc(Cl)c1` (stereo partly drawn) [Example 117, N2-(4-(4-chloro-1H-imidazol-1-yl)-3-methoxyphenyl)-N4-((R)-1-cyclopropylethyl)-8-(4-(trifluoromethyl)phenyl)-7,8-dihydro-5H-pyrano[4,3-d]pyrimidine-2,4-diamine, TFA], for which the IC50 worked out at 45 nM.

Still in this experiment, the particulars now being: H4 APP751 SWE clone 8.20 cells, 19 h incubation; class symbols; read-out: Activity Rating (Aβ42 cellular IC50).
For the compound `COc1cc(Nc2nc3c(c(N4CC(F)(F)C4)n2)COCC3c2ccc(F)cc2)ccc1-n1cnc(Cl)c1` (stereo not shown) [Example 63B, N-(4-(4-chloro-1H-imidazol-1-yl)-3-methoxyphenyl)-4-(3,3-difluoroazetidin-1-yl)-8-(4-fluorophenyl)-7,8-dihydro-5H-pyrano[4,3-d]pyrimidin-2-amine], the half-maximal inhibitory concentration (IC50) fell in the range of 100 to 1000 nM. Still for that read-out and setting: to `COc1cc(Nc2nc3c(c(N4CC(C)(O)C4)n2)CCC3c2ccc(F)cc2)ccc1-n1cnc(Cl)c1` (stereo not shown) [Example 189A, 1-(2-(4-(4-chloro-1H-imidazol-1-yl)-3-methoxyphenylamino)-7-(4-fluorophenyl)-6,7-dihydro-5H-cyclopenta[d]pyrimidin-4-yl)-3-methylazetidin-3-ol] belongs 1.5 to 9.9 nM; to `CNc1nc(Nc2ccc(-n3cnc(Cl)c3)c(OC)c2)nc2c1CCC2c1cc(F)cc(F)c1` (stereo not shown) [Example 102B, N^2-(4-(4-Chloro-1H-imidazol-1-yl)-3-methoxyphenyl)-7-(3,5-difluorophenyl)-N^4-methyl-6,7-dihydro-5H-cyclopenta[d]pyrimidine-2,4-diamine], 10 to 100 nM; to `CNc1nc(Nc2ccc(-n3cnc(Cl)c3)c(OC)c2)nc2c1CN(S(C)(=O)=O)CC2c1ccc(F)cc1` (stereo not shown) [Example 154, N2-(4-(4-chloro-1H-imidazol-1-yl)-3-methoxyphenyl)-8-(4-fluorophenyl)-N4-methyl-6-(methylsulfonyl)-5,6,7,8-tetrahydropyrido[4,3-d]pyrimidine-2,4-diamine], 10 to 100 nM.

With `CCC1CCCN1c1nc(Nc2ccc(-n3cnc(Cl)c3)c(OC)c2)nc2c1CCC2c1ccc(F)cc1` (single isomer, unassigned) [Example 23B, N-(4-(4-chloro-1H-imidazol-1-yl)-3-methoxyphenyl)-4-(2-ethylpyrrolidin-1-yl)-7-(4-fluorophenyl)-6,7-dihydro-5H-cyclopenta[d]pyrimidin-2-amine], the 50% inhibitory concentration (IC50) is 100 to 1000 nM.

As for `CCNc1nc(Nc2ccc(-n3cnc(Cl)c3)c(OC)c2)nc2c1CN(CC(F)(F)F)CC2c1ccccc1` (stereo not shown) [Example 196], the IC50 was in the range of 10 to 100 nM.
